# Test results reported in PubChem BioAssay (NCI).
#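 Briefly, cells in 96-well plates were exposed to five compound concentrations for 48 h, and endpoints were estimated by linear interpolation. At the GI50, growth is halved. TGI marks complete inhibition of growth.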
# Columns and labels:
# Experiment in all cases: growth of human tumour cells (NCI), 48 h
# 786-0 renal = tested on: 786-0 renal
# A498 renal = tested on: A498 renal
# A549 NSCLC = tested on: A549 NSCLC
# ACHN renal = tested on: ACHN renal
# BT-549 breast = tested on: BT-549 breast
# CAKI-1 renal = tested on: CAKI-1 renal
# CCRF-CEM leukemia = tested on: CCRF-CEM leukemia
# COLO 205 colon = tested on: COLO 205 colon
# DU-145 prostate = tested on: DU-145 prostate
# EKVX NSCLC = tested on: EKVX NSCLC
# HCC-2998 colon = tested on: HCC-2998 colon
# HCT-116 colon = tested on: HCT-116 colon
# HCT-15 colon = tested on: HCT-15 colon
# HL-60(TB) leukemia = tested on: HL-60(TB) leukemia
# HOP-62 NSCLC = tested on: HOP-62 NSCLC
# HOP-92 NSCLC = tested on: HOP-92 NSCLC
# HS 578T breast = tested on: HS 578T breast
# HT29 colon = tested on: HT29 colon
# IGROV1 ovarian = tested on: IGROV1 ovarian
# K-562 leukemia = tested on: K-562 leukemia
# KM12 colon = tested on: KM12 colon
# LOX IMVI melanoma = tested on: LOX IMVI melanoma
# M14 melanoma = tested on: M14 melanoma
# MALME-3M melanoma = tested on: MALME-3M melanoma
# MCF7 breast = tested on: MCF7 breast
# MDA-MB-231 breast = tested on: MDA-MB-231 breast
# MDA-MB-435 = tested on: MDA-MB-435
# MOLT-4 leukemia = tested on: MOLT-4 leukemia
# NCI-H226 lung = tested on: NCI-H226 lung
# NCI-H23 lung = tested on: NCI-H23 lung
# NCI-H460 lung = tested on: NCI-H460 lung
# NCI-H522 lung = tested on: NCI-H522 lung
# NCI/ADR-RES ovarian = tested on: NCI/ADR-RES ovarian
# OVCAR-4 ovarian = tested on: OVCAR-4 ovarian
# OVCAR-5 ovarian = tested on: OVCAR-5 ovarian
# OVCAR-8 ovarian = tested on: OVCAR-8 ovarian
# PC-3 prostate = tested on: PC-3 prostate
# RPMI-8226 leukemia = tested on: RPMI-8226 leukemia
# RXF 393 renal = tested on: RXF 393 renal
# SF-268 CNS = tested on: SF-268 CNS
# SF-295 CNS = tested on: SF-295 CNS
# SF-539 CNS = tested on: SF-539 CNS
# SK-MEL-2 melanoma = tested on: SK-MEL-2 melanoma
# SK-MEL-28 melanoma = tested on: SK-MEL-28 melanoma
# SK-MEL-5 melanoma = tested on: SK-MEL-5 melanoma
# SK-OV-3 ovarian = tested on: SK-OV-3 ovarian
# SN12C renal = tested on: SN12C renal
# SNB-19 CNS = tested on: SNB-19 CNS
# SNB-75 CNS = tested on: SNB-75 CNS
# SR leukemia = tested on: SR leukemia
# SW-620 colon = tested on: SW-620 colon
# T-47D breast = tested on: T-47D breast
# TK-10 renal = tested on: TK-10 renal
# U251 CNS = tested on: U251 CNS
# UACC-257 melanoma = tested on: UACC-257 melanoma
# UACC-62 melanoma = tested on: UACC-62 melanoma
# UO-31 renal = tested on: UO-31 renal
structure (smiles),measurement,setting,value
O=C(NNc1nc2cc(F)c(F)cc2n2c(CN3CC4CNCC4C3)ccc12)c1cnccn1 (centres undefined),GI50,786-0 renal,0.609 µM
same,TGI,786-0 renal,12.4 µM
same,GI50,A498 renal,0.522 µM
same,TGI,A498 renal,4.22 µM
same,GI50,A549 NSCLC,0.851 µM
same,TGI,A549 NSCLC,10.6 µM
same,GI50,ACHN renal,0.429 µM
same,TGI,ACHN renal,7.82 µM
same,GI50,BT-549 breast,2.42 µM
same,TGI,BT-549 breast,13.8 µM
same,GI50,CAKI-1 renal,0.415 µM
same,TGI,CAKI-1 renal,9.69 µM
same,GI50,CCRF-CEM leukemia,0.706 µM
same,TGI,CCRF-CEM leukemia,27.5 µM
same,GI50,COLO 205 colon,0.874 µM
same,TGI,COLO 205 colon,13.8 µM
same,GI50,DU-145 prostate,1.3 µM
same,TGI,DU-145 prostate,11.8 µM
same,GI50,EKVX NSCLC,0.732 µM
same,TGI,EKVX NSCLC,13.8 µM
same,GI50,HCC-2998 colon,2.74 µM
same,TGI,HCC-2998 colon,16.5 µM
same,GI50,HCT-116 colon,0.588 µM
same,TGI,HCT-116 colon,15.8 µM
same,GI50,HCT-15 colon,0.363 µM
same,TGI,HCT-15 colon,16.2 µM
same,GI50,HL-60(TB) leukemia,1.15 µM
same,TGI,HL-60(TB) leukemia,4.36 µM
same,GI50,HOP-62 NSCLC,0.459 µM
same,TGI,HOP-62 NSCLC,5.23 µM
same,GI50,HOP-92 NSCLC,3.01 µM
same,TGI,HOP-92 NSCLC,17.4 µM
same,GI50,HS 578T breast,3.33 µM
same,TGI,HS 578T breast,20.6 µM
same,GI50,HT29 colon,0.726 µM
same,TGI,HT29 colon,15.2 µM
same,GI50,IGROV1 ovarian,0.904 µM
same,TGI,IGROV1 ovarian,10.8 µM
same,GI50,K-562 leukemia,0.785 µM
same,TGI,K-562 leukemia,> 100 µM
same,GI50,KM12 colon,0.74 µM
same,TGI,KM12 colon,12.7 µM
same,GI50,LOX IMVI melanoma,0.608 µM
same,TGI,LOX IMVI melanoma,6.7 µM
same,GI50,M14 melanoma,0.611 µM
same,TGI,M14 melanoma,12.3 µM
same,GI50,MALME-3M melanoma,1.75 µM
same,TGI,MALME-3M melanoma,9.7 µM
same,GI50,MCF7 breast,1.41 µM
same,TGI,MCF7 breast,12.3 µM
same,GI50,MDA-MB-231 breast,3.65 µM
same,TGI,MDA-MB-231 breast,20.6 µM
same,GI50,MDA-MB-435,2.53 µM
same,TGI,MDA-MB-435,16.3 µM
same,GI50,MOLT-4 leukemia,0.764 µM
same,TGI,MOLT-4 leukemia,13.6 µM
same,GI50,NCI-H226 lung,1.23 µM
same,TGI,NCI-H226 lung,14.5 µM
same,GI50,NCI-H23 lung,2.47 µM
same,TGI,NCI-H23 lung,14.3 µM
same,GI50,NCI-H460 lung,0.463 µM
same,TGI,NCI-H460 lung,4.72 µM
same,GI50,NCI-H522 lung,2.34 µM
same,TGI,NCI-H522 lung,6.26 µM
same,GI50,NCI/ADR-RES ovarian,2.6 µM
same,TGI,NCI/ADR-RES ovarian,14.3 µM
same,GI50,OVCAR-4 ovarian,0.995 µM
same,TGI,OVCAR-4 ovarian,20.6 µM
same,GI50,OVCAR-5 ovarian,1.75 µM
same,TGI,OVCAR-5 ovarian,16.8 µM
same,GI50,OVCAR-8 ovarian,0.547 µM
same,TGI,OVCAR-8 ovarian,7.83 µM
same,GI50,PC-3 prostate,1.25 µM
same,TGI,PC-3 prostate,16.1 µM
same,GI50,RPMI-8226 leukemia,1.3 µM
same,TGI,RPMI-8226 leukemia,11.8 µM
same,GI50,RXF 393 renal,1.27 µM
same,TGI,RXF 393 renal,9.46 µM
same,GI50,SF-268 CNS,0.962 µM
same,TGI,SF-268 CNS,10.8 µM
same,GI50,SF-295 CNS,0.44 µM
same,TGI,SF-295 CNS,11.2 µM
same,GI50,SF-539 CNS,1.07 µM
same,TGI,SF-539 CNS,4.42 µM
same,GI50,SK-MEL-2 melanoma,1.89 µM
same,TGI,SK-MEL-2 melanoma,11.4 µM
same,GI50,SK-MEL-28 melanoma,2.11 µM
same,TGI,SK-MEL-28 melanoma,14.5 µM
same,GI50,SK-MEL-5 melanoma,1.65 µM
same,TGI,SK-MEL-5 melanoma,4.34 µM
same,GI50,SK-OV-3 ovarian,0.811 µM
same,TGI,SK-OV-3 ovarian,9.06 µM
same,GI50,SN12C renal,2.06 µM
same,TGI,SN12C renal,11.4 µM
same,GI50,SNB-19 CNS,2.2 µM
same,TGI,SNB-19 CNS,18.8 µM
same,GI50,SNB-75 CNS,2.16 µM
same,TGI,SNB-75 CNS,14.1 µM
same,GI50,SR leukemia,0.481 µM
same,TGI,SR leukemia,20.5 µM
same,GI50,SW-620 colon,1.17 µM
same,TGI,SW-620 colon,15.2 µM
same,GI50,T-47D breast,3.3 µM
same,TGI,T-47D breast,22.9 µM
same,GI50,TK-10 renal,0.455 µM
same,TGI,TK-10 renal,17 µM
same,GI50,U251 CNS,0.741 µM
same,TGI,U251 CNS,11.2 µM
same,GI50,UACC-257 melanoma,2.09 µM
same,TGI,UACC-257 melanoma,7.13 µM
same,GI50,UACC-62 melanoma,1.19 µM
same,TGI,UACC-62 melanoma,6.28 µM
same,GI50,UO-31 renal,0.356 µM
same,TGI,UO-31 renal,3.24 µM
